Measured values taken from patent publication US10676468B2, “N-(3-heteroarylaryl)-4-arylarylcarboxamides and analogs as hedgehog pathway inhibitors and use thereof” (IMPACT Therapeutics, Inc., priority 2012, dated 2020).

Tests used:
[1] = tested on: Hedgehog Signaling Pathway; assay: SAG-induced differentiation of C3H10T1/2 cells into osteoblastic cells, intracellular alkaline phosphatase activity; type: cell-based, mouse; settings: Mus musculus, C3H 10T1/2, 120 h, 1 μM SAG, 5 days, alkaline phosphatase activity (OD405), read-out: IC50 values of compounds that inhibit Hh pathway
Text: (§1) The Application of SAG to Induce Pluripotent Mesenchymal Mouse Embryonic Cell C3H/10T1/2 to Differentiate into Osteoblastic Cells for the Determination of the Inhibitory Activity of N-(3-(1H-benzo[d]imidazol-2-yl)-4-chlorophenyl)-2-methyl-4-((2S,6R)-2,6-dimethylmorpholino)benzamide and Analogs on Hedgehog Signaling Pathway
The intracellular alkaline phosphatase activity is a reliable indication of the differentiation process. Therefore this enzymatic activity can be used to monitor the activity of hedgehog pathway inhibitors.
The C3H10T1/2 cells were grown in DMEM medium supplemented with 10% fetal bovine serum (FBS, Hyclone) at 37° C. with 5% CO2. 10000 cells were sown to each well of a 96-well microplate a day before the experiment and grown overnight. At the day of experiment, the inducing medium and inhibitor solutions were prepared as follows: the reference compound and testing compounds were serially diluted 1 to 3 and 1 to 10 in DMSO to seven concentrations with the eighth concentration being DMSO. A 10-fold dilution was prepared by mixing 10 μL of the DMSO dilution with 90 μL of fresh growing medium. […] Pre-sown cells were taken out from incubator and the medium was removed. To each well, 180 μL inducing medium was added and followed immediately with 20 μL of testing or reference compound dilutions. The testing compound concentrations are between 10 μM and 1 nM. The cells were then return to CO2 incubator to grow additional 5 days at 37° C.
(§2) After incubating for 5 days, the cells were taken out and intracellular alkaline phosphatase activity was tested. The alkaline phosphatase activity was measured as follows:
1) Preparation of Substrate Solution:
(§3) Solution A: A 0.5 mM MgCl2 (Sigma Prod. No. M-0250) solution was prepared.
(§4) After the pH value was adjusted to 9.8 with 5 M HCl at 37° C., the total volume was adjusted to 100 mL.
(§5) After it is completely dissolved the total volume was adjusted to 10 mL with the final concentration being 1 mM.
Substrate reaction medium: To 10 mL of solution B, 250 μL of solution A and 200 μL of solution C were added, and mixed well.
2) the Measurement of Intracellular Alkaline Phosphatase Activity:
(§6) After taking out the cells from the incubator, the cell culture medium was removed and cells were washed twice with PBS. 20 μL of lysis solution (0.2% Triton solution) was added to each well. After being shaken for 30 min at room temperature, each well of cells received 80 μL of substrate reaction medium. The microplate was placed immediately into a VariSkan Flashplate reader and absorbance at OD405 was read as background reading. The plate was replaced back to cell culture incubator at 37° C. for additional 30 min and the absorbance was read again using VariSkan Flash plate reader at OD405.
(§7) The data were analyzed by subtracting the background reading from the reading at 30 min, and the obtained numbers were plotted and analyzed with Prism 5 software (GraphPad). The phosphatase activity (calculated OD405) was plotted against the log concentration of testing compound, and the obtained plot was fitted with non-linear curve fitting equation to calculate IC50 values. The curve fitting equation is Y=Bottom+(Top−Bottom)/(1+10^((X−Log IC50))). X is the logarithm of concentration. Y is the measure of alkaline phosphatase activity (OD405).
(§8) The calculated IC50 value is a measurement of the inhibitory activity of compound to Hh pathway.

[2] = tested on: Hedgehog Signaling Pathway; assay: SHH-induced differentiation of C3H10T1/2 cells into osteoblastic cells, intracellular alkaline phosphatase activity; type: cell-based, mouse; settings: Mus musculus, C3H 10T1/2, 120 h, 10 nM SHH-N, 5 days, alkaline phosphatase activity (OD405), read-out: IC50 values of compounds that inhibit Hh pathway
Method: as §1, with “SHH” for “SAG”, “C3H10T1/2” for “C3H/10T1/2”
The C3H10T1/2 cells were grown in DMEM medium supplemented with 10% fetal bovine serum (FBS, Hyclone) at 37° C. with 5% CO2. 10000 cells were sown to each well of a 96-well microplate a day before the experiment and grown overnight. […] The reference compound and testing compounds were serially diluted 1 to 3 and 1 to 10 in DMSO to seven concentrations with the eighth concentration being DMSO. A 10-fold dilution was prepared by mixing 10 μL of the DMSO dilutions with 90 μL of fresh growing medium. Pre-sown cells were taken out from incubator and the medium was removed. To each well, 180 μL of inducing medium containing 10 nM of SHH-N was added and followed immediately with 20 μL of 10× testing or reference compound dilutions. The testing compound concentrations are between 10 μM and 10 nM. The cells were then returned to CO2 incubator to grow additional 5 days at 37° C.
as §2
3) Preparation of Substrate Solution:
as §3, §4, §5
Substrate reaction medium: to 10 mL of solution B, 250 μL of solution A and 200 μL of solution C were added, and mixed well.
4) The Measurement of Intracellular Alkaline Phosphatase Activity:
as §6
as §7, with “Y=Bottom+(Top−Bottom)/(1+10^(X−Log IC50)).” for “Y=Bottom+(Top−Bottom)/(1+10^((X−Log IC50))).”
as §8

| SMILES | IC50 [1] | IC50 [2] |
| --- | --- | --- |
| Cc1cc(-c2ccc(C(F)(F)F)cc2)ccc1C(=O)Nc1cccc(-c2cn3ccccc3n2)c1 [Example 56, N-(3-(imidazo[1,2-a]pyridin-2-yl)phenyl)-3-methyl-4′-(trifluoromethyl)biphenyl-4-carboxamide] | 2370 nM | 189 nM |
| C[C@@H]1CN(c2ccc(C(=O)Nc3ccc(Cl)c(-c4nc5ccccc5[nH]4)c3)c(N)c2)C[C@H](C)O1 [Example 33, N-(3-(1H-benzo[d]imidazol-2-yl)-4-chlorophenyl)-2-amino-4-((2S,6R)-2,6-dimethylmorpholino)benzamide] | 83 nM | 22 nM |
| COc1ccc(-c2ccc(C(=O)Nc3ccc(Cl)c(-c4nc5ccccc5[nH]4)c3)c(C)c2)cc1 [Example 3, N-(3-(1H-benzo[d]imidazol-2-yl)-4-chlorophenyl)-3-methyl-4′-methoxybiphenyl-4-carboxamide] | 111 nM | 39 nM |
| O=C1c2ccc(-c3ccccc3)cc2CCN1c1ccc(Cl)c(-c2nc3ccccc3[nH]2)c1 [Example 29, 2-(3-(1H-benzo[d]imidazol-2-yl)-4-chlorophenyl)-6-phenyl-3,4-dihydroisoquinolin-1(2H)-one] | > 10000 nM | 72 nM |
| Cc1cc(C(=O)Nc2ccc(Cl)c(-c3nc4ccccc4[nH]3)c2)cnc1N1C[C@@H](C)O[C@@H](C)C1 [Example 37, N-(3-(1H-benzo[d]imidazol-2-yl)-4-chlorophenyl)-5-methyl-6-((2S,6R)-2,6-dimethylmorpholino)nicotinamide] | 167 nM | 52 nM |

Next, values leading:

| IC50 [1] | IC50 [2] | SMILES |
| --- | --- | --- |
| > 10000 nM | > 10000 nM | Cc1cc(-c2ccc(C(F)(F)F)cc2)ccc1C(=O)Nc1cccc(-c2cn3cccnc3n2)c1 [Example 55, N-(3-(imidazo[1,2-a]pyrimidin-2-yl)phenyl)-3-methyl-4′-(trifluoromethyl)biphenyl-4-carboxamide] |
| 139 nM | 18 nM | O=C(Nc1ccc(Cl)c(-c2nc3ccccc3[nH]2)c1)C1CCC(c2ccccc2)CC1 (centres unmarked) [Example 44, N-(3-(1H-benzo[d]imidazol-2-yl)-4-chlorophenyl)-4-phenylcyclohexanecarboxamide] |
| 263 nM | 162 nM | C[C@@H]1CN(c2ccc3c(=O)n(-c4ccc(Cl)c(-c5nc6ccccc6[nH]5)c4)cnc3c2)C[C@H](C)O1 [Example 34, 3-(3-(1H-benzo[d]imidazol-2-yl)-4-chlorophenyl)-7-((2S,6R)-2,6-dimethylmorpholino)quinazolin-4(3H)-one] |
| 74 nM | 14 nM | Cc1cc(-c2ccccc2)ccc1C(=O)Nc1ccc(Cl)c(-c2nc3ccccc3[nH]2)c1 [Example 2, N-(3-(1H-benzo[d]imidazol-2-yl)-4-chlorophenyl)-3-methylbiphenyl-4-carboxamide] |
| 1340 nM | 39 nM | Cc1cc(-c2ccc(C(F)(F)F)cc2)ccc1C(=O)Nc1cc(Cl)cc(-c2nc3ccccc3[nH]2)c1 [Example 63, N-(3-(1H-benzo[d]imidazol-2-yl)-5-chlorophenyl)-3-methyl-4′-(trifluoromethyl)biphenyl-4-carboxamide] |
| 229 nM | 44 nM | Cc1cc(N2CCCCC2)ccc1C(=O)Nc1ccc(Cl)c(-c2nc3ccccc3[nH]2)c1 [Example 31, N-(3-(1H-benzo[d]imidazol-2-yl)-4-chlorophenyl)-2-methyl-4-(piperidin-1-yl)benzamide] |
| 81 nM | 15 nM | O=C(Nc1ccc(Cl)c(-c2nc3ccccc3[nH]2)c1)c1ccc(-c2ccc(C(F)(F)F)cc2)cc1F [Example 17, N-(3-(1H-benzo[d]imidazol-2-yl)-4-chlorophenyl)-3-fluoro-4′-(trifluoromethyl)biphenyl-4-carboxamide] |
| 312 nM | 45 nM | Cc1cc(N2CCN(C)CC2)ccc1C(=O)Nc1ccc(Cl)c(-c2nc3ccccc3[nH]2)c1 [Example 92, N-(3-(1H-benzo[d]imidazol-2-yl)-4-chlorophenyl)-2-methyl-4-(4-methylpiperazin-1-yl)benzamide] |
